The values below come from patent US20250170100A1, “MONOACYLGLYCEROL LIPASE INHIBITORS AND USE THEREOF FOR THE TREATMENT OF ANXIETY AND RELATED CONDITIONS” (Psy Therapeutics, Inc., priority 2021, published 2025).

The target of one data set is human recombinant FAAH (Homo sapiens (Human), UniProt O00519). Briefly: FAAH counter screen (Fatty Acid Amide Hydrolase Inhibitor Screening Assay Kit). It counts as biochemical. Conditions: Method B: starting concentration of 10 μM. On the procedure:
MAGL inhibitor compounds were also counter-screened for FAAH inhibition potency using the following assay. Assessment of FAAH inhibition was performed using Fatty Acid Amide Hydrolase Inhibitor Screening Assay Kit (Cayman Item No. 10005196) following manufacture's instruction with some modifications. The kit utilizes human recombinant FAAH and the fluorescent substrate, AMC Arachidonoyl amide (AAMCA). 5 μL of assay buffer (125 mM Tris, pH 9.0, 1 mM EDTA, i.e. ethylenediaminetetraacetic acid) was added to a 384-well black plate (Corning, 3573). Test compounds and control inhibitor JZL-195 (Cayman Chemical, 13668) were tested in 10-concentration IC50 mode with 3-fold serial dilution at a starting concentration of 100 μM and 10 μM, respectively. 300 nL or 30 nL of test compounds were delivered into a 384-well black plate (Corning, 3573) using a Labcyte Echo, followed by addition of 15 μL of FAAH enzyme (Cayman, 700302) in assay buffer. After a 5-minute pre-incubation at room temperature, 10 μL of AAMCA was added in assay buffer to start the reaction. Final concentration of FAAH enzyme is not specified and AAMCA substrate was used at the 20 μM. After these dilutions, the final concentration of the test compounds ranged from 100 μM to 5.08 nM or 10 μM down to 0.508 nM. The reaction was allowed to progress for 60 minutes, while the plate was read on an Envision plate reader at an Ex/Em of 350/460 nm with readings every minute. The data was analyzed in Microsoft Excel, using the slope between 30 and 59 minutes. The average of the no-enzyme wells (background) was subtracted from the data. The background-subtracted slope data was converted to % activity using the average of wells with enzyme and DMSO vehicle. IC50 values were calculated using GraphPad software (Sigmoidal dose response, variable slope equation).
Compounds listed in Table D2 were tested in the FAAH Counterscreen of Example 19
Background: A counterscreen serves to expose hits that act by an unwanted route or on another target.

Another data set has as its target human MAGL (Homo sapiens (Human), UniProt Q99685). Briefly: MAGL reversible inhibition assay (washout). The class given is biochemical. The settings on record: pre-washout compound concentration: 1 μM. Here is the method:
The reversible mechanism of MAGL inhibition of a test compound of Formula (I) can be determined. Flag-tagged MAGL enzyme will be immobilized on anti-Flag beads. Immobilized enzyme will be incubated+/−inhibitor at a dose that produces complete inhibition. Colorimetric substrate (4-NPA) will be added and the reaction monitored on a plate reader for 30 minutes to verify complete inhibition. Immobilized enzyme will then be washed thoroughly to remove the inhibitor, and fresh substrate will be added. The reaction will be monitored for an additional 30 minutes; returning enzymatic activity will indicate reversibility of inhibition.
MAGL enzyme was incubated for 30 minutes in the presence of 40× the IC50 concentration of inhibitor. Enzyme+inhibitor mix was then diluted 40-fold so that the final concentration of the inhibitor equaled the IC50 concentration. Substrate was added and the reaction was monitored for 30 minutes.

In the next data set the test system is 2-AG levels in brain. Briefly: 2-AG estimation in mouse brain after single intraperitoneal administration of Compound 473. Conditions: IP 20 mg/kg, 0.5 h. It counts as in vivo, male C57BL/6 mice. Here is the method:
(§1) This experiment was performed to determine plasma pharmacokinetics and estimate 2-AG levels in male C57BL/6 mice brain following a single intraperitoneal administration of Compound-473 (Dose: 20 mg/kg).
(§2) Study Design: A total of twelve C57BL/6 male mice were used in this study. Six animals were administered intraperitoneally with solution formulation of PSY-05-00473-002 at 20 mg/kg dose. Six animals were administered vehicle (5% NMP, 5% Solutol HS15 and 90% Normal saline) intraperitoneally at 10 mL/kg dose volume. Blood samples (approximately 60 μL) were collected under light isoflurane anesthesia from a set of six mice at 0.5 h. Plasma was harvested by centrifugation of blood and stored at −70±10° C. until analysis. After blood collection, mice were euthanized by cervical dislocation and brain samples were dissected rapidly and snapped frozen in liquid nitrogen and stored at −80. To homogenize, removed brain samples from the freezer, were divided into two equal hemispheres and weighed while still in frozen condition, and begun homogenization/extraction procedure without allowing the brain samples to thaw. […]
(§3) Analysis: For PK estimation, brain samples were homogenized in 2 volumes of PBS of brain weight. […] Plasma and brain homogenate samples were quantified by fit-for-purpose LC-MS/MS method (LLOQ: 1.02 ng/mL for plasma and 2.03 ng/ml for brain).

A short description of data set [1]: Plasma and brain concentrations after single intraperitoneal administration of Compound 473. The settings on record: male, C57BL/6, mouse, IP 20 mg/kg, read-out: Brain/Plasma Ratio (kp) (mean). It counts as in vivo, male C57BL/6 mice. On the procedure:
as §1, §2, §3

A short description of data set [2]: Pharmacokinetic study of compounds in mice (brain, oral). The class given is in vivo, male C57BL/6 mice. The settings on record: 5 mg/kg. On the procedure:
Healthy male C57BL/6 mice (8-12 weeks old) weighing between 17 to 35 g were procured from Global, India. Temperature and humidity were maintained at 22±3° C. and 30-70%, respectively and illumination was controlled to give a sequence of 12 hr light and 12 hr dark cycle. Temperature and humidity were recorded by auto-controlled data logger system. All the animals were provided laboratory rodent diet. Reverse osmosis water treated with ultraviolet light was provided ad libitum.
Protocol A: Twenty-four male mice were divided into two groups as; Group 1:30 mg/kg/IP, Plasma and brain; Number of animals=12; Animal #1-12. Group 2:30 mg/kg/PO; Plasma and brain; Number of animals=12; Animal #13-24. […] All samples were processed for analysis by protein precipitation using acetonitrile and analyzed with fit-for-purpose LC/MS/MS method (LLOQ-2.02 ng/mL for plasma and 6.06 ng/g for brain). Pharmacokinetic parameters were calculated using the non-compartmental analysis tool of Phoenix WinNonlin®.
Protocol B: Thirty six mice were included into the study and divided in to three groups as Group 1 (n=12), Group 2 (n=12) and Group 3 (n=12) with n=2 mice per time-point design. […] Plasma and brain samples were quantified by fit-for-purpose LC-MS/MS method (LLOQ: 1.01 ng/mL for plasma and 2.02 ng/ml for brain). […]

Structures are written as SMILES. pIC50: −log10 of the molar value. Bounds are passed on as bounds.

Chain of human recombinant FAAH (O00519 whole entry): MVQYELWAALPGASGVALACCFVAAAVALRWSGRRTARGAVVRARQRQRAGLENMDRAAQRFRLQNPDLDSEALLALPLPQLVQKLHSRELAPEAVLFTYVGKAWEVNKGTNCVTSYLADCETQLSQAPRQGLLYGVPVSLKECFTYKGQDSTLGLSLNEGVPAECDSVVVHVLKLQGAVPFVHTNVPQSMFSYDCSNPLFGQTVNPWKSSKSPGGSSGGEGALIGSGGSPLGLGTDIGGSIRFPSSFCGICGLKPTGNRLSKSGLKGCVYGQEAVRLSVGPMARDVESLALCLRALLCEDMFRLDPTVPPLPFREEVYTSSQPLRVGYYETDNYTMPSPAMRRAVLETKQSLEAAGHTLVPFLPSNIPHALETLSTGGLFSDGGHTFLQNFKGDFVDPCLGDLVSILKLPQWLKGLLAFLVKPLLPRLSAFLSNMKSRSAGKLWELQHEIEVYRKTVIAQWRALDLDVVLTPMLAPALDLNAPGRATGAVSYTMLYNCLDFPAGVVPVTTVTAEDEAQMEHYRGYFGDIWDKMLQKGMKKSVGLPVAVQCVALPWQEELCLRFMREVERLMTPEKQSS
Chain of human MAGL (Q99685 whole entry): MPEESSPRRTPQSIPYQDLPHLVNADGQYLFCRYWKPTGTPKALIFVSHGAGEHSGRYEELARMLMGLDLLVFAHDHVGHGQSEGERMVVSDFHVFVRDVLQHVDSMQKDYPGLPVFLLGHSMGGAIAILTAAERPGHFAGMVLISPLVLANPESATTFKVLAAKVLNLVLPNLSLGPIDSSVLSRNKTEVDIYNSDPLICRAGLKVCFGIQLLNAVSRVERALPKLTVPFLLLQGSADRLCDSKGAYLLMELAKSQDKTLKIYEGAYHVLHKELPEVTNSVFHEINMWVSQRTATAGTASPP

On to `O=C(c1cc(O)ccc1F)N1CC2(CC(n3cc(C(F)(F)F)c(-c4ccccc4F)n3)C2)C1` [Compound 473, (2-fluoro-5-hydroxyphenyl) {6-[3-(o-fluorophenyl)-4-(trifluoromethyl)-1-pyrazolyl]-2-aza-2-spiro[3.3]heptyl}methanone], for which the pIC50 at human recombinant FAAH is < 5.00. Besides, the “A: degree to which MAGL enzymatic activity returned following washout” value at human MAGL was found to be 41. For the same molecule, the “Mean 2AG Concentration in Brain” value with 2-AG levels in brain was 17.38 nmol/g. The Kp at 0.5 h in data set [1] was 1.44. Further, in data set [2], the AUClast worked out at 464.42 ng·h/mL and the Cmax worked out at 171.59 ng/g.

One may read the pIC50 as the IC50 on a negative log10 scale, so that one unit is a factor of ten. As a reminder, the Cmax is the highest concentration seen after dosing.
